Where two headings read alike, the source gives them in different places.
Key:
Pf Dd2 = Pf Dd2 growth inhibition assay; type: cell-based, Plasmodium falciparum
Description: (§1) EC50 assays were run as described in Int'l Pub Nos. WO 2015070204, WO 2018175385, and Kato, N, et al. Nature 538 (2016): 344-349, which are hereby incorporated by reference in its entirety. The inhibition of the aminoacylation activity of Pf (Plasmodium falciparum), Pv (Plasmodium vivax), Hs (Human) and Pf-Mut (L550V) cFRS enzymes by Compound 1 are illustrated in FIG. 1.

PfcFRS [1] = target: T1, PfcFRS (Plasmodium falciparum, UniProt Q8I246); test: malachite green-based aminoacylation assay, PfcFRS; type: biochemical
T1 sequence (Q8I246 1-575): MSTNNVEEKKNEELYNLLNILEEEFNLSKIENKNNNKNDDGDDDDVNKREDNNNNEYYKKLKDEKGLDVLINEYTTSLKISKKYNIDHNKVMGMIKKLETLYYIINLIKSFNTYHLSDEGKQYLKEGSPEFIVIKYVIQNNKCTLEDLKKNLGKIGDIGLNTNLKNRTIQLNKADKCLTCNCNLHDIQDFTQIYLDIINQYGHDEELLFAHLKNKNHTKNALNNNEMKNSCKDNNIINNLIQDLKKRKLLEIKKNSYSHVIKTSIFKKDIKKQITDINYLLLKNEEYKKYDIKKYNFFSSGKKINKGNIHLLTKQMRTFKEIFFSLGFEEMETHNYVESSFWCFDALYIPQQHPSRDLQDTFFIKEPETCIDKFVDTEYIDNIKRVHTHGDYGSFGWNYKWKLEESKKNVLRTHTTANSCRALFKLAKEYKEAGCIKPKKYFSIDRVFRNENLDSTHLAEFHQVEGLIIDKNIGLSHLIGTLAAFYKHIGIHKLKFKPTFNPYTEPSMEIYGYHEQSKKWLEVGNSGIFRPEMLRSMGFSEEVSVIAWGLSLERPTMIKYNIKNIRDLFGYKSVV
T1 sequence (Q8IIW2 1-623 partner): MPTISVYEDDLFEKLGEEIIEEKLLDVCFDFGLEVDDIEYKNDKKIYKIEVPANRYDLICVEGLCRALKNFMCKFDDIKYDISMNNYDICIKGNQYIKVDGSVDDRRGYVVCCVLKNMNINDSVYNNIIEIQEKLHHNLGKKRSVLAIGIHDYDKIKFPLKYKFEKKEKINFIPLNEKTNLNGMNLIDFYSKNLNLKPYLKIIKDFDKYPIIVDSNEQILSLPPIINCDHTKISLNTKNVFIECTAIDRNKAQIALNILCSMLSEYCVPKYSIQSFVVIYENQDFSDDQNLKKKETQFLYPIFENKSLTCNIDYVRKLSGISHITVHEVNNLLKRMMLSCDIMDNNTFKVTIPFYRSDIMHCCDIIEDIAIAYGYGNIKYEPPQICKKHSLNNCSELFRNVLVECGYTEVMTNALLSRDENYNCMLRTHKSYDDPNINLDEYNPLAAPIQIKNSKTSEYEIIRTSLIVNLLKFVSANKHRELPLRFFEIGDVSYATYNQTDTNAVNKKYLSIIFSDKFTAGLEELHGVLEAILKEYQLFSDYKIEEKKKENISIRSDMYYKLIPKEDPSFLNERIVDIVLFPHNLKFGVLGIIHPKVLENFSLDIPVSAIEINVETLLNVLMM
Description: as §1
The enzymatic activity of purified heterodimeric PfcFRS using malachite green-based aminoacylation assays with substrates L-Phe and ATP was also measured as described in Cestari, I. et al., J Biomol. Screen. 18 (2013): 490-497 and Kato, N, et al. Nature 538 (2016): 344-349, which are hereby incorporated by reference in its entirety. […] Enzymatic reactions (50 μl total volume) were performed in clear, flat-bottomed, 96-well plates (Costar 96-well standard microplates). The reaction mixture was incubated for 2 h at 37° C. The reaction was stopped by adding 12.5 μl of malachite green solution to the reaction mixture and levels of inorganic phosphate (Pi) were detected after incubation of 5 min at room temperature. Absorbance was the measured at 620 nm using a Spectramax M2 (Molecular Devices). Reactions without FRS enzyme were performed as background controls, values of which were subtracted from the reactions with enzyme. Compound 1 was added to the aminoacylation assay reaction buffer in varying concentrations ranging from 0.1 nM to 10,000 nM.
Data sets were then globally fitted to the appropriate model (with equations (1) and (2) used for competitive and mixed inhibition respectively).
where v is the reaction rate, Km is the Michaelis-Menten constant, Vmax is the maximum reaction velocity, Ki is the inhibitor constant, [I] is the concentration of inhibitor (Compound 1) and [S] is the concentration of substrate.
The data is shown for three replicates as the mean±SD in FIGS. 2A and 2B. […] Specifically, enzyme activity was evaluated at a fixed saturating concentration of one substrate (L-Phe or ATP) and varying concentrations the other at different inhibitor concentrations. The experimental data were fit to the Michaelis-Menten equation that produced Lineweaver-Burk plots as described above. […] The mode of inhibition was then analyzed using ATP as the variable-concentration substrate (FIG. 2B). The data were then fit to the modified high-substrate inhibition Michaelis-Menten equation that led to the corresponding double-reciprocal plot and its inhibition profile.

PfcFRS [2] = target: T1, PfcFRS; test: Surface Plasmon Resonance binding, PfcFRS; conditions: SPR, 25° C., PBS pH 7.4, 5% DMSO; read-out: cFRS Kd, Pf
Protocol: Surface Plasmon Resonance experiments to evaluate the binding of Compound 1 to proteins were carried out on a Biacore T200 instrument (GE Healthcare) at 25° C. The binding experiments were performed in buffer 10 mM phosphate buffered saline (PBS), pH 7.4, containing 5% dimethyl sulfoxide (DMSO). The flow system was primed with the running buffer before the initiation of the experiment. Both PfcFRS and HscFRS were immobilized to Sensor Chip CM5 by standard amine coupling chemistry using N-hydroxysuccinimide (NHS) and ethyl(dimethylaminopropyl) carbodiimide (EDC), to an immobilization level of approximately 1500 RU. The binding experiments were carried out in a single cycle kinetics mode. Compound 1 was serially diluted in running buffer, and injected at a flow rate of 60 μl min^−1 across both surface for 60 s and dissociation were set up for 120 s. The analysis was done using Biaevaluation (GE Healthcare) and GraphPad Prism 7 software (GraphPad Software Inc, USA). […] The equilibrium dissociation constants (Kd) were determined by plotting the measured response (Req) as a function of the analyte concentration. […] Measured sensograms illustrating the binding of various concentrations of Compound 1 to the protein are shown in FIG. 3B (PfcFRS) and 3C (HscFRS) including both the measured data and the 1:1 binding model fit.

With `COC[C@@H]1[C@H](c2ccc(C#Cc3ccccc3)cc2)[C@@H]2CN(C(=O)Nc3ccc(OC4CC4)cc3)C[C@@H](O)[C@@H](O)CN12` [Compound 1, (3S,4R,8R,9R,10S)—N-(4-cyclopropoxyphenyl)-3,4-dihydroxy-10-(methoxymethyl)-9-(4-(phenylethynyl)phenyl)-1,6-diazabicyclo[6.2.0]decane-6-carboxamide] the EC50 (Pf Dd2; Plasmodium falciparum, DD2, read-out: PfDd2 growth inhibition EC50) was under 1 nM, the “efficacy by EC50 Pf Dd2 growth inhibition relative to comparator” value (Pf Dd2; versus (3S,4R,8R,9S,10S)-10-((dimethylamino)methyl) analogue) was “three fold better efficacy” and the “mode of inhibition with respect to ATP” value (PfcFRS [1]; Lineweaver-Burk analysis) was “non-competitive inhibitor”. For the same compound, the “mode of inhibition with respect to L-Phe” value (PfcFRS [1]; Lineweaver-Burk analysis) was “competitive inhibitor”, the IC50 (PfcFRS [1]; aminoacylation activity, read-out: cFRS IC50, Pf) was 12 nM and the Ki (PfcFRS [1]; global competitive inhibition model, saturating ATP, varying L-Phe, read-out: Ki with respect to L-Phe) was 6 ± 2 nM. The Ki (PfcFRS [1]; non-competitive inhibition model, saturating L-Phe, varying ATP, read-out: Ki with respect to ATP) was 10 ± 5 nM and the Kd (PfcFRS [2]) was 4 nM.

— patent publication US20230279018A1, “AP[…] INHIBITION” (priority 2020, published 2023)
